Article PMC3684613 (PLoS ONE, 2013)
Read-outs that look alike come from different tables or passages of the source.

How the values were obtained:
P. falciparum 3D7 [1] = test system: P. falciparum 3D7; parameters: method as in ChEMBL-NTD; conditions: ref ChEMBL-NTD, cited from earlier work
P. falciparum 3D7 [2] = test: DAPI stain fluorescent high content imaging assay, P. falciparum 3D7 (confirmatory screen, Avery); conditions: Plasmodium falciparum; for EC50: 3D7, read-out: EC50_nM; for inhibition of growth at 5 µM: 3D7, read-out: percent_inh @ 5 uM; for inhibition of growth at 2 µM: 3D7, read-out: percent_inh @ 2 uM
[3] = values follow the order of the source (GNF; GSK; StJude)
[4] = original screening data, source (GSK, GNF, StJude), several values separated by ';' in order of sources

Structure (SMILES)	EC50 (P. falciparum 3D7 [2]) [nM]	inhibition of growth at 5 µM (P. falciparum 3D7 [2]) [%]	other results
O=c1cc(NC2CCN(CCCc3ccccc3)CC2)c2cc(Cl)ccc2o1 [MMV665786]	846	97	EC50 (P. falciparum 3D7 [1]; source GNF (GNF-Pf ids)): 408 nM
CN(C)c1ccc(N=Cc2ccc(N3CCOCC3)cc2)cc1 [MMV073843]		96	EC50 (P. falciparum 3D7 [1]; [3]): 175 nM
CCCCCCc1cc(O)c2c3c(c(=O)oc2c1)CCC(C)C3 (centres unmarked) [MMV665987]	534	96	EC50 (P. falciparum 3D7 [1]; source GNF (GNF-Pf ids)): 364 nM
Cc1[nH]c(-c2ccc(F)cc2)cc1C(=O)NC1CCN(Cc2ccccc2)CC1 [MMV019738]	771	99	EC50 (P. falciparum 3D7 [1]; source GSK): 1130 nM
COc1cccc(Nc2nc(NCCO)c3ccccc3n2)c1 [MMV011944]	854		EC50 (P. falciparum 3D7 [1]; source GNF): 115 nM; EC50 (P. falciparum 3D7 [1]; source GSK): 151 nM
Cc1c(C)n(Cc2ccc(F)cc2)c2ccc(C(=O)NCc3ccco3)cc12 [MMV008149]		52	EC50 (P. falciparum 3D7 [1]; source GNF): 78.2 nM
COc1cc(CNCCc2ccc(Cl)cc2)cc(OC)c1O [MMV128432]	1790	97	EC50 (P. falciparum 3D7 [1]; [3]): 6890 nM
c1ccc(C2=Nc3ccccc3N=C(c3ccccc3)c3ccccc32)cc1 [MMV007113]	662	99	EC50 (P. falciparum 3D7 [1]; [3]): 678 nM
O=C(NC1CCN(Cc2ccccc2)CC1)c1cc(-c2ccncc2)nc2ccc(Cl)cc12 [MMV020275]	1020	92	EC50 (P. falciparum 3D7 [1]; [4]): 920 nM
Cc1cc(NCCN2CCCCC2)c2ccc3ccccc3c2n1 [MMV006203]	300	99	EC50 (P. falciparum 3D7 [1]; source GNF (GNF-Pf id)): 44.1 nM
CNCCCNc1ccnc2cc(Cl)ccc12 [MMV020500]	82.2	98	EC50 (P. falciparum 3D7 [1]; source GSK (TCMDC id)): 62.4 nM
CCN1CCN(c2c(C(=O)c3ccccc3)cnc3cc(OC)c(OC)cc23)CC1 [MMV008474]		59	EC50 (P. falciparum 3D7 [1]; source GNF (GNF-Pf ids)): 3020 nM
COc1ccc2c(=O)cc(C(Cl)(Cl)Cl)oc2c1 [MMV665820]	520	94	EC50 (P. falciparum 3D7 [1]; source StJude (SJ id)): 15000 nM
CCN1CCN(Cc2ccc(NC(=O)c3cc4ccc5cccnc5c4[nH]3)cc2)CC1 [MMV020548]	361	70	EC50 (P. falciparum 3D7 [1]; source GSK (TCMDC id)): 848 nM
Cc1cc(N(C)C)nc(Nc2ccc(NC(=O)Nc3ccccc3)cc2)n1 [MMV020243]	1150		EC50 (P. falciparum 3D7 [1]; [3]): 134 nM
COc1ccc(CCNC(=O)c2cc(S(=O)(=O)N3CC(C)CC(C)C3)ccc2Sc2ccc(F)cc2)cc1OC (centres unmarked) [MMV007557]	632	97	EC50 (P. falciparum 3D7 [1]; source GNF (GNF-Pf ids)): 1050 nM
CC(=O)Nc1nnc(SCc2c(C)cc(C(C)(C)C)cc2C)s1 [MMV020700]	871	96	EC50 (P. falciparum 3D7 [1]; [4]): 704 nM
Cc1nc2ccccc2c(O)c1CC=C(Cl)Cl [MMV665994]	836	89	EC50 (P. falciparum 3D7 [1]; source GNF (GNF-Pf ids)): 498 nM
O=C(c1ccccc1F)N(Cc1ccc(Cl)cc1)c1ccccn1 [MMV665899]		59	EC50 (P. falciparum 3D7 [1]; source GSK): 1020 nM
CC1CCN(Cc2c(O)ccc3cc(-c4nc5ccccc5s4)c(=O)oc23)CC1 [MMV009127]	1130	91	EC50 (P. falciparum 3D7 [1]; source GNF (GNF-Pf ids)): 12500 nM

Structure (SMILES)	EC50 (P. falciparum 3D7 [2]) [nM]	inhibition of growth at 5 µM (P. falciparum 3D7 [2]) [%]	other results
Oc1ccc2ccccc2c1CNc1nc2ccccc2[nH]1 [MMV011832]	646	83	EC50 (P. falciparum 3D7 [1]; [3]): 652 nM
CCOC(=O)c1cnc2ccc(Cl)cc2c1NCCCN(C)C [MMV006882]	1190	98	EC50 (P. falciparum 3D7 [1]; source GNF (GNF-Pf ids)): 826 nM
O=C(Nc1ccc(-c2nc3cc(NC(=O)c4ccc(Cl)cc4)ccc3[nH]2)cc1)c1ccc(Cl)cc1 [MMV006962]			EC50 (P. falciparum 3D7 [1]; [3]): 993 nM; inhibition at 1.25 µM (P. falciparum 3D7 [2]; 3D7, read-out: % inh. At 1.25 uM): 48%
CCCCN(CCCC)S(=O)(=O)c1ccc(NC(=O)c2ccco2)cc1 [MMV007881]		78	EC50 (P. falciparum 3D7 [1]; [4]): 1420 nM
CN(C)CCNc1cc(-c2ccccc2)nc2ccccc12 [MMV006704]	4000		EC50 (P. falciparum 3D7 [1]; [4]): 692 nM; inhibition of growth at 2 µM (P. falciparum 3D7 [2]): 92%
Cc1cc(C=C2SC(=Nc3ccccc3)N(C3CCCC3)C2=O)c(C)n1-c1ccc(Cl)cc1 [MMV666688]	263	97	EC50 (P. falciparum 3D7 [1]; source GSK (TCMDC id)): 876 nM
CCC(C)NCC(O)(c1ccc(Cl)cc1)c1ccc(Cl)cc1 (centres unmarked) [MMV665928]	642	98	EC50 (P. falciparum 3D7 [1]; source GNF): 639 nM; EC50 (P. falciparum 3D7 [1]; source GSK): 843 nM
CCCCCCc1cc2cc(-c3nc4ccccc4[nH]3)c(=Nc3ccccc3C)oc2cc1O [MMV666597]	551	96	EC50 (P. falciparum 3D7 [1]; [3]): 2120 nM
Cn1c(=O)n(C)c2cc(CNCCNc3ccnc4cc(Cl)ccc34)ccc21 [MMV665875]	545	90	EC50 (P. falciparum 3D7 [1]; [3]): 140 nM
O=C(Nc1ccc(F)c(Cl)c1)Nc1ccc(Cl)c(Cl)c1 [MMV665953]	2060	95	EC50 (P. falciparum 3D7 [1]; source StJude): 5410 nM
C=C(C)CCC(C)N1CCC(N2CCC(C(=O)NCCc3ccccc3)CC2)CC1 (centres unmarked) [MMV666110]	1750	96	EC50 (P. falciparum 3D7 [1]; source StJude): 4260 nM
COc1ccccc1N=C1C(=O)c2ccccc2C(O)=C1N1CCCCC1 [MMV085203]	5.3	98	EC50 (P. falciparum 3D7 [1]; source GNF (GNF-Pf id)): 28 nM
Cc1cc(NC(=O)C2c3ccccc3C(=O)N(CC(C)C)C2c2cccs2)no1 (centres unmarked) [MMV006429]	32.8	100	EC50 (P. falciparum 3D7 [1]; source GNF (GNF-Pf id)): 85.6 nM
CCOc1cccc2sc(N(Cc3cccnc3)C(=O)C3CCCCC3)nc12 [MMV001230]		94	EC50 (P. falciparum 3D7 [1]; source StJude): 3040 nM
O=C(Nc1ccc(-c2nc3ccccc3[nH]2)cc1)c1ccc(Cl)c(Cl)c1 [MMV665840]	838	97	EC50 (P. falciparum 3D7 [1]; [3]): 523 nM
CCCCc1ccc(NS(=O)(=O)c2cc3c4c(c2)CCN4C(=O)CC3)cc1 [MMV001255]	538	96	EC50 (P. falciparum 3D7 [1]; source StJude): 15000 nM
O=C(Nc1ccc(C23CC4CC(CC(c5ccccc5)(C4)C2)C3)cc1)c1cccs1 [MMV007574]	826	96	EC50 (P. falciparum 3D7 [1]; source GNF (GNF-Pf ids)): 645 nM
COc1ccc(C(=O)C(CCC(CNC(C)(C)C)C(=O)c2ccc(OC)cc2)CNC(C)(C)C)cc1 (centres unmarked) [MMV007591]		85	EC50 (P. falciparum 3D7 [1]; [3]): 1120 nM
CCOc1cc(Br)c(C(C)NC(=O)c2cccc(OC)c2)cc1OCC (centres unmarked) [MMV665796]	1430	96	EC50 (P. falciparum 3D7 [1]; source GSK): 168 nM
CCOc1c(Cl)cc(CNC(C)C(O)c2ccccc2)cc1OC (centres unmarked) [MMV665857]		98	EC50 (P. falciparum 3D7 [1]; source GNF): 1650 nM

Structure (SMILES)	EC50 (P. falciparum 3D7 [2]) [nM]	inhibition of growth at 5 µM (P. falciparum 3D7 [2]) [%]	other results
Cc1ccc(-c2cc3nc4c(c(O)n3n2)CCCC4)cc1 [MMV006937]	396	73	EC50 (P. falciparum 3D7 [1]; source GNF (GNF-Pf id)): 1600 nM
CCOC(=O)c1c(NC(=O)c2ccccc2)sc2c(O)c(CN(CC)CC)ccc12 [MMV665831]	205	96	EC50 (P. falciparum 3D7 [1]; source GNF (GNF-Pf id)): 267 nM; EC50 (P. falciparum 3D7 [1]; source GSK (TCMDC id)): 969 nM
O=c1nc(C=Cc2ccc(Br)cc2)oc2ccccc12 [MMV666599]		94	EC50 (P. falciparum 3D7 [1]; source GSK (TCMDC ids)): 1050 nM
COc1cccc(-c2nn(C)c3sc(C(=O)NCCN4CCN(c5ccccc5F)CC4)cc23)c1 [MMV019064]	1300	91	EC50 (P. falciparum 3D7 [1]; source GSK): 955 nM
CC(C)(C)c1ccc(C2CC3=Nc4ccccc4N(C(=O)c4ccccc4Cl)C(c4ccc(F)cc4)C3=C(O)C2)cc1 (centres unmarked) [MMV011436]	946	96	EC50 (P. falciparum 3D7 [1]; [3]): 2630 nM
CSc1ccccc1C(=O)Nc1nc(-c2ccccn2)cs1 [MMV001246]	206	98	EC50 (P. falciparum 3D7 [1]; source StJude (SJ id)): 6820 nM
O=C(NCCCN1CCC(N2CCCCC2)CC1)C1=Cc2cc(Br)ccc2OC1 [MMV019995]	563	99	EC50 (P. falciparum 3D7 [1]; source GSK (TCMDC ids)): 853 nM
O=C(Nc1cccc(C(F)(F)F)c1)c1cc(Cl)ccc1O [MMV665807]		93	EC50 (P. falciparum 3D7 [1]; source StJude): 973 nM
COc1cc(SC)ccc1C(=O)N1CCCC(C)C1 (centres unmarked) [MMV056726]	4000		EC50 (P. falciparum 3D7 [1]; [4]): 9810 nM; inhibition of growth at 2 µM (P. falciparum 3D7 [2]): 45%
CCC1(C)CC(CCNCc2ccccc2O)(c2ccc(C)cc2)CCO1 (centres unmarked) [MMV019406]	142	97	EC50 (P. falciparum 3D7 [1]; source GSK (TCMDC id)): 38.8 nM
Clc1ccc2[nH]c3c(NCCCN4CCOCC4)ncnc3c2c1 [MMV006587]	700		EC50 (P. falciparum 3D7 [1]; [4]): 109 nM
Cc1ccc(-c2nc3ccccc3o2)cc1NCc1cc(Cc2ccccc2)ccc1O [MMV020912]		64	EC50 (P. falciparum 3D7 [1]; [3]): 1030 nM
CCOC(=O)c1cnc2ccc(OC)cc2c1NCc1ccccc1 [MMV665813]		87	EC50 (P. falciparum 3D7 [1]; [3]): 2770 nM
CCOC(=O)C1=CN(C)C=C(C(=O)OCC)C1c1cc(Br)c(OCC)c(OC)c1 [MMV006656]	518	97	EC50 (P. falciparum 3D7 [1]; [3]): 913 nM
CCOC(=O)c1cnc2ccc(CC)cc2c1O [MMV007116]	351		EC50 (P. falciparum 3D7 [1]; source GNF (GNF-Pf id)): 716 nM
COc1ccc2c(c1)OC(O)(C(F)(F)C(F)(F)F)CC2=O (centres unmarked) [MMV007839]	283		EC50 (P. falciparum 3D7 [1]; source GNF (GNF-Pf id)): 442 nM
COc1ccc(CN2CCCC(C(=O)c3ccc(C(F)(F)F)cc3)C2)c(O)c1 (centres unmarked) [MMV666060]		97	EC50 (P. falciparum 3D7 [1]; source GSK (TCMDC ids)): 849 nM
CN(C)c1ccc(C(O)(c2ccc(N(C)C)cc2)c2ccc(N(C)C)cc2)cc1 [MMV665941]	255	96	EC50 (P. falciparum 3D7 [1]; source StJude (SJ id)): 620 nM
